Laboratory results taken from patent publication US12448392B2, “Spiropiperidine derivatives” (89BIO LTD, priority 2016, dated 2025).
Counter-ions that a name gives are not always drawn. Like-named read-outs stand apart in the source and are kept apart here.

What was measured:
[1] = non-specific irreversible FASN inhibitors; cited from earlier work
[2] = test system: viral replication (Flaviviridae family); details: inhibition of FASN by small molecule inhibitors; cited from earlier work
[3] = target: T1, recombinant human baculovirus-expressed GST-tagged FASN (Homo sapiens, UniProt P49327); assay: biochemical
T1 construct: GST
T1 sequence (P49327 whole entry): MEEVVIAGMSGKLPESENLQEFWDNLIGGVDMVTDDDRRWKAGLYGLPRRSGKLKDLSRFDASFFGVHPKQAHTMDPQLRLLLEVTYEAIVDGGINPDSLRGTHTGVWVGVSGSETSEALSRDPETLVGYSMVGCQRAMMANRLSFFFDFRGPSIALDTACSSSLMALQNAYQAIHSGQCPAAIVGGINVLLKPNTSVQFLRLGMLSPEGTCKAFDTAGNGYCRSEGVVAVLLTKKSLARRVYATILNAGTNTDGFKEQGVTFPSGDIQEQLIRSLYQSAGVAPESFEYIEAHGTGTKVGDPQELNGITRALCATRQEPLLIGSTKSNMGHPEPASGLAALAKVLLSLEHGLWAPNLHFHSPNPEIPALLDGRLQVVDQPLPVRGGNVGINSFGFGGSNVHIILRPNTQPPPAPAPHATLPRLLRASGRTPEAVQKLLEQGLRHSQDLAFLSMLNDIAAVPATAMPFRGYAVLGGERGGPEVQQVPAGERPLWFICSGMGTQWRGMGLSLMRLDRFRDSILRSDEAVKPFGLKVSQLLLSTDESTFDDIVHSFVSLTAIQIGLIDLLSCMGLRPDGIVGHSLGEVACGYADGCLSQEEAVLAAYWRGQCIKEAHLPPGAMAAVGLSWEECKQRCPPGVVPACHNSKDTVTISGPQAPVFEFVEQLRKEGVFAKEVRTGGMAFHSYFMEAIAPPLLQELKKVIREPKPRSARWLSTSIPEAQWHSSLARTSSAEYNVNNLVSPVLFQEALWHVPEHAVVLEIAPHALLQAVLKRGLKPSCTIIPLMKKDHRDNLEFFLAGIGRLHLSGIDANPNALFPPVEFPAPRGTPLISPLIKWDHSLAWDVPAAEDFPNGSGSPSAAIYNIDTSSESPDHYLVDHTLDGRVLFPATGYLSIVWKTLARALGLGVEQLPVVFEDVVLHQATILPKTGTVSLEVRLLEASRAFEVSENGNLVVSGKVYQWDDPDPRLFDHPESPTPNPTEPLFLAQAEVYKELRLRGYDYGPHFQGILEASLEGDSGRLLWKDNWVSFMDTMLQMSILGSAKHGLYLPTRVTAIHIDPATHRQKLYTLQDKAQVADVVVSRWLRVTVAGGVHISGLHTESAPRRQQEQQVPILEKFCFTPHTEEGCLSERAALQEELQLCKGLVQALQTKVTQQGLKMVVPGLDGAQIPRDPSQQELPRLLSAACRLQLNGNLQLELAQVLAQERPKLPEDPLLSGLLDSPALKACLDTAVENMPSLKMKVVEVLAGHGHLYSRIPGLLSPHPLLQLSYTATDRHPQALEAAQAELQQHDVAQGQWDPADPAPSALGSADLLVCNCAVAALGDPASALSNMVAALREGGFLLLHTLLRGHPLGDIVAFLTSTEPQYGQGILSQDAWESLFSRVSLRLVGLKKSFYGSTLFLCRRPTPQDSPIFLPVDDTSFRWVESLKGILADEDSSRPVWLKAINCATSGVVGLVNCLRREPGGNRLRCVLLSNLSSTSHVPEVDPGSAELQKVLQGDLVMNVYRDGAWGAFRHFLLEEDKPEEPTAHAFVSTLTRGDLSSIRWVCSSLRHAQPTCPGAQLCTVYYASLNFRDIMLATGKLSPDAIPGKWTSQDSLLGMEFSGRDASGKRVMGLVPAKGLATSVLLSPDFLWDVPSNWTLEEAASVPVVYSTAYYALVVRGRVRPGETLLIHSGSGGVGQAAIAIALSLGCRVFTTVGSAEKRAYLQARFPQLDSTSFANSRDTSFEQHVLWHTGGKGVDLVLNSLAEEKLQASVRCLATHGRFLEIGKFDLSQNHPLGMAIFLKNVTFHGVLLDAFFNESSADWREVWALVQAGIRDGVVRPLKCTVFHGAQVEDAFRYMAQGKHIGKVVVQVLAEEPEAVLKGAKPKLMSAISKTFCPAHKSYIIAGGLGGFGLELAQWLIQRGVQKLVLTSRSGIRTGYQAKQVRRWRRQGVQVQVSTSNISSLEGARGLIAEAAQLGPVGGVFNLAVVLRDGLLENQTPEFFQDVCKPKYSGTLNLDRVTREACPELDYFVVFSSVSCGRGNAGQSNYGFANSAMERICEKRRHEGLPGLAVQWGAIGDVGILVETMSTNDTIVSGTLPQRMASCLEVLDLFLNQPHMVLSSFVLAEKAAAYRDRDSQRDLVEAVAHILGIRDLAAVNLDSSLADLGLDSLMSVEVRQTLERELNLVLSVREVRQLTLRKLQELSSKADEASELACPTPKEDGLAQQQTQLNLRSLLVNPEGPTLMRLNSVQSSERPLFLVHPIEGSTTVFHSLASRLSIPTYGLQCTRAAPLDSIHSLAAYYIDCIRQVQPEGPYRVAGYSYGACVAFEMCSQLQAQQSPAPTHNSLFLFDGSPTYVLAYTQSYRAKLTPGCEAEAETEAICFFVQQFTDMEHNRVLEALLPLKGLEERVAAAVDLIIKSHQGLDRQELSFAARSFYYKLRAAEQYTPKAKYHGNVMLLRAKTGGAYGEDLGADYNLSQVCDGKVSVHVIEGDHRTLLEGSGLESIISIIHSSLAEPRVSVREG

[4] = 5 nM FASN, 150 μM NADPH, 10 μM acetyl-CoA, 25 μM malonyl-CoA, 90 minutes incubation, read-out: IC50 data for Compounds of Formula I, Activity

## C/C=C/C/C=C/CCC(=O)[C@H]1O[C@H]1C(N)=O [Cerulenin]
[1]
  brain levels of orexigenic neuropeptides: decrease brain levels of orexigenic neuropeptides
  food intake: decrease food intake
[2]
  inhibition of viral replication: strong inhibition of viral replication

## CCCCCCCCCCC[C@@H](C[C@@H]1OC(=O)[C@H]1CCCCCC)OC(=O)[C@H](CC(C)C)NC=O [Orlistat]
[2]
  inhibition of viral replication: strong inhibition of viral replication

## C=C1C(=O)OC(CCCCCCCC)C1C(=O)O (stereo not drawn) [Example C-75]
[1]
  brain levels of orexigenic neuropeptides: decrease brain levels of orexigenic neuropeptides
  food intake: decrease food intake

## CCCNC(=O)N1CCC2(CCc3cc(-c4ccc5cccnc5c4C)ccc3O2)CC1 [Example 99, 6-(8-Methyl-7-quinolyl)-N-propyl-spiro[chromane-2,4′-piperidine]-1′-carboxamide]
[3]; [4]
  IC50: 1 to 99 nM

## CCOC(=O)N1CCC2(CC1)OCc1cc(-c3ccc4cccnc4c3)ccc1O2 [Example 30, Ethyl 6-(7-quinolyl)spiro[4H-1,3-benzodioxine-2,4′-piperidine]-1′-carboxylate]
[3]
  IC50: 1 to 99 nM

## Cc1cc(-c2ccc3c(c2)CCC2(CCN(C(=O)[C@H]4CCCO4)CC2)O3)cc2cccnc12 [Example 20, [6-(8-Methyl-6-quinolyl)spiro[chromane-2,4′-piperidine]-1′-yl]-[(2R)-tetrahydrofuran-2-yl]methanone]
[3]; [4]
  IC50: 1 to 99 nM

## NC(=O)N1CCC2(CCc3cc(-c4ccc5occc5c4)ccc3O2)CC1 [Example 73, 6-(Benzofuran-5-yl)spiro[chromane-2,4′-piperidine]-1′-carboxamide]
[3]; [4]
  IC50: 1000 to 10000 nM

## Cc1c(-c2ccc3c(c2)CCC2(CCN(C(=O)CO)CC2)O3)ccc2cccnc12 [Example 61, 2-Hydroxy-1-[6-(8-methyl-7-quinolyl)spiro[chromane-2,4′-piperidine]-1′-yl]-ethanone]
[3]; [4]
  IC50: 100 to 999 nM

## CONC(=O)N1CCC2(CCc3cc(-c4ccc5ccnn5c4C)ccc3O2)CC1 [Example 124, N-Methoxy-6-(7-methylpyrazolo[1,5-a]pyridin-6-yl)spiro[chromane-2,4′-piperidine]-1′-carboxamide]
[3]; [4]
  IC50: 1 to 99 nM

## Cc1c(-c2ccc3c(c2)CCC2(CCN(C(N)=O)CC2)O3)ccc2c(O)ccnc12 [Example 251, 6-(4-Hydroxy-8-methyl-7-quinolyl)spiro[chromane-2,4′-piperidine]-1′-carboxamide]
[3]; [4]
  IC50: 1000 to 10000 nM

## CONC(=O)N1CCC2(CC1)OCc1cc(-c3ccc4ccnn4c3C)ccc1O2 [Example 128, N-Methoxy-6-(7-methylpyrazolo[1,5-a]pyridin-6-yl)spiro[4H-1,3-benzodioxine-2,4′-piperidine]-1′-carboxamide]
[3]
  IC50: 1 to 99 nM

## Cc1c(-c2ccc3c(c2)CCC2(CCN(C(=O)[C@H]4CCCO4)CC2)O3)ccc2nccn12 [Example 28, [6-(5-Methylimidazo[1,2-a]pyridin-6-yl)spiro[chromane-2,4′-piperidine]-1′-yl]-[(2R)-tetrahydrofuran-2-yl]methanone]
[3]; [4]
  IC50: 1 to 99 nM

## NC(=O)N1CCC2(CCc3cc(-c4ccc5[nH]ccc5c4)ccc3O2)CC1 [Example 76, 6-(1H-Indol-5-yl)spiro[chromane-2,4′-piperidine]-1′-carboxamide]
[3]; [4]
  IC50: 100 to 999 nM

## NC(=O)N1CCC2(CCc3cc(-c4cnc5sccc5c4)ccc3O2)CC1 [Example 85, 6-Thieno[2,3-b]pyridin-5-ylspiro[chromane-2,4′-piperidine]-1′-carboxamide]
[3]; [4]
  IC50: 1000 to 10000 nM

## CONC(=O)N1CCC2(CCc3cc(-c4ccc5cccnc5c4C)ccc3O2)CC1 [Example 120, N-Methoxy-6-(8-methyl-7-quinolyl)spiro[chromane-2,4′-piperidine]-1′-carboxamide]
[3]; [4]
  IC50: 1 to 99 nM

## Cc1c(-c2ccc3c(C)nccc3c2)ccc2c1CCC1(CCN(C(N)=O)CC1)O2 [Example 241, 5-methyl-6-(1-methyl-6-isoquinolyl)spiro[chromane-2,4′-piperidine]-1′-carboxamide]
[3]; [4]
  IC50: 1000 to 10000 nM

## CCCONC(=O)N1CCC2(CCc3cc(-c4ccc5cccnc5c4C)ccc3O2)CC1 [Example 102, 6-(8-Methyl-7-quinolyl)-N-propoxy-spiro[chromane-2,4′-piperidine]-1′-carboxamide]
[3]; [4]
  IC50: 1 to 99 nM

## Cc1cc2cc(-c3ccc4c(c3)COC3(CCN(C(N)=O)CC3)O4)ccc2cn1 [Example 201, 6-(3-Methyl-6-isoquinolyl)spiro[4H-1,3-benzodioxine-2,4′-piperidine]-1′-carboxamide]
[3]
  IC50: 1000 to 10000 nM

## COc1c(-c2ccc3c(c2)CCC2(CCN(C(=O)C4CC4)CC2)O3)ccc2cccnc12 [Example 15, Cyclopropyl-[6-(8-methoxy-7-quinolyl)spiro[chromane-2,4′-piperidine]-1′-yl]-methanone, HCl]
[3]; [4]
  IC50: 1 to 99 nM

## Cc1c(-c2ccc3c(c2)COC2(CCN(C(=O)C4CC4)CC2)O3)ccc2cccnc12 [Example 54, Cyclopropyl-[6-(8-methyl-7-quinolyl)spiro[4H-1,3-benzodioxine-2,4′-piperidine]-1′-yl]methanone]
[3]
  IC50: 1 to 99 nM

## NC(=O)N1CCC2(CCc3cc(-c4cc5ccccc5[nH]4)ccc3O2)CC1 [Example 236, 6-(1H-Indol-2-yl)spiro[chromane-2,4′-piperidine]-1′-carboxamide]
[3]; [4]
  IC50: 1000 to 10000 nM

## Cc1c(-c2ccc3c(c2)COC2(CCN(C(=O)[C@H]4CCCO4)CC2)O3)cnc2ccccc12 [Example 51]
[3]
  IC50: 1 to 99 nM

## CCC(=O)N1CCC2(CCc3cc(-c4ccc5cccnc5c4Cl)ccc3O2)CC1 [Example 9, 1-[6-(8-chloro-7-quinolyl)spiro[chromane-2,4′-piperidine]-1′-yl]propan-1-one]
[3]; [4]
  IC50: 1 to 99 nM

## CCONC(=O)N1CCC2(CCc3cc(-c4ccc5ccnn5c4C)ccc3O2)CC1 [Example 115, N-Ethoxy-6-(7-methylpyrazolo[1,5-a]pyridin-6-yl)spiro[chromane-2,4′-piperidine]-1′-carboxamide]
[3]; [4]
  IC50: 1 to 99 nM

## Cc1c(-c2cc(F)c3c(c2)CCC2(CCN(C(N)=O)CC2)O3)ccc2cccnc12 [Example 237, 8-Fluoro-6-(8-methyl-7-quinolyl)spiro[chromane-2,4′-piperidine]-1′-carboxamide]
[3]; [4]
  IC50: 1 to 99 nM

## CCC(=O)N1CCC2(CC1)CC(=O)c1cc(-c3cnc4ccccc4c3)ccc1O2 [Example 38, 1′-Propanoyl-6-(3-quinolyl)spiro[chromane-2,4′-piperidine]-4-one]
[3]; [4]
  IC50: 100 to 999 nM

## CONC(=O)N1CCC2(CCc3cc(-c4ccc5c(C)nccc5c4)cc(F)c3O2)CC1 [Example 242]
[3]; [4]
  IC50: 1 to 99 nM

## Cc1c(-c2ccc3c(c2)CCC2(CCN(C(=O)NO)CC2)O3)ccc2cccnc12 [Example 105, 6-(8-methyl-7-quinolyl)spiro[chromane-2,4′-piperidine]-1′-carbohydroxamic acid]
[3]; [4]
  IC50: 100 to 999 nM

## CC(=O)OCC(=O)N1CCC2(CC1)OCc1cc(-c3ccc4cccnc4c3C)ccc1O2 [Example 60, [2-[6-(8-methyl-7-quinolyl)spiro[4H-1,3-benzodioxine-2,4′-piperidine]-1′-yl]-2-oxo-ethyl]acetate]
[3]
  IC50: 100 to 999 nM

## O=C(C1CC1)N1CCC2(CC1)OCc1cc(-c3ccc4cccnc4c3Cl)ccc1O2 [Example 58, [6-(8-Chloro-7-quinolyl)spiro[4H-1,3-benzodioxine-2,4′-piperidine]-1′-yl]-cyclopropyl-methanone]
[3]
  IC50: 1 to 99 nM

## Cc1c(-c2ccc3c(c2)CCC2(CCN(C(=O)NO)CC2)O3)ccc2ccnn12 [Example 125, 6-(7-Methylpyrazolo[1,5-a]pyridin-6-yl)spiro[chromane-2,4′-piperidine]-1′-carbohydroxamic acid]
[3]; [4]
  IC50: 1000 to 10000 nM

## Cc1c(-c2ccc3c(c2)CCC2(CCN(C(=O)NO)CC2)O3)ccc2nccn12 [Example 141, 6-(5-Methylimidazo[1,2-a]pyridin-6-yl)spiro[chromane-2,4′-piperidine]-1′-carbohydroxamic acid]
[3]; [4]
  IC50: 1000 to 10000 nM

## CCONC(=O)N1CCC2(CCc3cc(-c4ccc5cccnc5c4Cl)ccc3O2)CC1 [Example 69, 6-(8-chloro-7-quinolyl)-N-ethoxy-spiro[chromane-2,4′-piperidine]-1′-carboxamide]
[3]; [4]
  IC50: 1 to 99 nM

## CCC(=O)N1CCC2(CCc3cc(-c4ccc5c(C)nccc5c4)ccc3O2)CC1 [Example 24, 1-[6-(1-Methyl-6-isoquinolyl)spiro[chromane-2,4′-piperidine]-1′-yl]propan-1-one]
[3]; [4]
  IC50: 1 to 99 nM

## CCNC(=O)N1CCC2(CCc3cc(-c4ccc5ccnn5c4C)ccc3O2)CC1 [Example 112, N-Ethyl-6-(7-methylpyrazolo[1,5-a]pyridin-6-yl)spiro[chromane-2,4′-piperidine]-1′-carboxamide]
[3]; [4]
  IC50: 1 to 99 nM

## O=C(NO)N1CCC2(CCc3cc(-c4cc5ccccc5cn4)ccc3O2)CC1 [Example 151, 6-(3-Isoquinolyl)spiro[chromane-2,4′-piperidine]-1′-carbohydroxamic acid]
[3]; [4]
  IC50: 1000 to 10000 nM
